Assay [1] concerns IGF-II secretion by differentiated C2C12 cells. In words: C2C12 differentiation and IGF-II secretion assay. As to conditions: 24 hrs treatment. Type of assay: cell-based, mouse. The source says: C2C12 differentiation and IGF-II secretion assay (Wanderling, S. et al. GRP94 is essential for mesoderm induction and muscle development because it regulates insulin-like growth factor secretion. Mol. Biol. Cell 18, 3764-75 (2007); Ostrovsky, O., Ahmed, N.T. & Argon, Y. The chaperone activity of GRP94 toward insulin-like growth factor II is necessary for the stress response to serum deprivation. Mol. Biol. Cell 20, 1855-64 (2009)). C2C12 cells were maintained and cultured in DMEM in the presence of 10% FBS and 1% penicillin/streptomycin (Culture medium). C2C12 is an immortal line of mouse skeletal myoblasts originally derived from satellite cells from the thigh muscle of a two month old female mouse donor. These cells differentiate well into myocytes under appropriate culture conditions. […] Secreted IGF-II was quantified by using IGF-II mouse ELISA kit (Abcam, AB100696) according to the manufacturer's instructions. […] The bound IGF-II was detected with a biotinylated anti-IGF-II antibody. After the sequential incubation with HRP conjugated streptavidin, TMB One-step substrate reagent and the Stop solution, the absorbance was measured at 450 nm. The secreted IGF-II was quantified against a standard curve generated with recombinant IGF-II provided by the kit.

The subject of assay [2] is IGF1R and TGFbeta expressing ovarian cancer cell lines. In words: Apoptosis in ovarian cancer cell lines. Type of assay: cell-based. As for the experimental part: Cell cycle and apoptosis assessment. Cell cycle and apoptosis were assessed by flow cytometry after single staining with propidium iodide (PI, BD Pharmingen) or double staining with AnnexinV-FITC (BD Pharmingen) and 7AAD (BD Pharmingen), respectively. Specifically, for cell cycle analysis, cells were washed twice with cold PBS and fixed in 70% ethanol overnight at 4° C. Fixed cells were collected at 1800 rpm for 10 min and stained with PBS containing PI and DNase-free RNase A (Sigma-Aldrich) for 1 h at room temperature in the dark. DNA content was measured by BD LSRII flow cytometer and cell further analyzed using program of cell cycle analysis in FloJo (Ashland, OR). The chicken erythrocyte nuclei singlets (CEN, Biosure) were used as the reference. For apoptosis assessment, live cells were collected, washed twice with cold PBS, resuspended in Binding Buffer and stained with AnnexinV-FITC and 7AAD for 15 min at room temperature in the dark. Signals from FL1 and FL3 channels were collected by MACSQuant analyzer and further analyzed using FloJo. Early apoptosis was defined as AnnexinV+/7AAD−, and late apoptosis was observed as AnnexinV+/7AAD+.

Assay [3] concerns downstream EGFR signaling in MDA-MB-468 tumors. In words: PD analysis of tumors (Western blot). As to conditions: 75 mg/kg ip. Type of assay: in vivo, mouse. As for the experimental part: For this purpose we used mice bearing MDA-MB-468 tumors (a triple-negative breast tumor with EGFR-overexpression). Because of the specific affinity of the provided Grp94 inhibitors for tumor Grp94, we performed PK/PD studies that are tailored for this purpose. In this PK/PD study we incorporated two time points, a 2 h and a 24 h time of sacrifice post-administration. The early time point is incorporated to test the biodistribution of the agent to the site of its action, the tumor; PU-WS13 was readily distributed to tumor mass with -850 μM noted in tumor at 2 h versus 100 μM in the plasma (FIG. 25A). […] The concentration of PU-WS13 in the tumor at 24 h post-administration of single dose of 75 mg/kg was 0.5 μM. […] We also analyzed the potential suppression by PU-WS13 of normal Grp94 functions. A “housekeeping” function for Grp94 was identified using a conditional knock-out mouse model; that study found a role for Grp94 in normal GI cells, i.e. regulation of the Wnt receptor LRP6 (Liu et al., Proc Natl Acad Sci USA. 2013 Apr. 23; 110(17):6877-82). […]
The other half of tumor tissues were evaluated for changes in EGFR and other PD markers as established in our laboratory. […] After quantifying the protein concentrations by BCA, 25-100ug proteins were loaded into SDS-PAGE and subjected to immunoblotting.

Assay [4] has as its system PANC-1 cells. In words: Cell viability assessment (CellTiter-Glo). Type of assay: cell-based.

Regarding `CC(C)NCCCn1c(Sc2cc(Cl)cc(Cl)c2)nc2c(N)ncnc21` [PU-WS13], the IGF-II secretion result in assay [1] is on record as “inhibited IGF-II secretion”. In addition, the induction of apoptosis result in assay [2] is recorded as “induces apoptosis”. For the same compound, the “PD effect in tumor (p-AKT and p-ERK inhibition)” value in assay [3] is “partial suppression of downstream EGFR signaling”. In addition, the “effect on cell growth” value in assay [4] was “effectively inhibited the growth”.

These data come from patent US12600725B2 (Memorial Sloan-Kettering Cancer Center, priority 2013, dated 2026).
